Test results: ChEMBL document CHEMBL5113479, “Pyrido[2,3-d]pyrimidine-2,4(1H,3H)-dione derivatives as RAF-MEK-ERK pathway signaling pathway blockers: Synthesis, cytotoxic activity, mechanistic investigation and structure-activity relationships” (Eur J Med Chem, 2022)

Tested on: SK-HEP1
Test: Antiproliferative activity against human SK-HEP1 cells assessed as inhibition of cell growth measured after 72 hrs by CCK8 assay
Type: functional, cell-based
Settings: SK-HEP1, 72 h

Point of comparison: `Cc1cccc(NC(=O)CNc2cc(N3CCN(C)CC3)nc3c2c(=O)n(C)c(=O)n3C)c1`, IC50 17.3 µM. Against it:
- Cn1c(=O)c2c(NCC(=O)Nc3cccc(C(F)(F)F)c3)cc(N3CCOCC3)nc2n(C)c1=O — 1.6-fold lower, 11 µM
- O=c1[nH]cc(F)c(=O)[nH]1 [FLUOROURACIL] — 3.5-fold lower, 4.95 µM
- CN1CCN(c2cc(NCC(=O)Nc3ccc(F)cc3)c3c(=O)n(C)c(=O)n(C)c3n2)CC1 — 2-fold higher, 34.2 µM
- CN1CCN(c2cc(NCC(=O)Nc3ccc(Cl)cc3)c3c(=O)n(C)c(=O)n(C)c3n2)CC1 — higher, > 50 µM
- Cc1ccccc1NC(=O)CNc1cc(N2CCCC2)nc2c1c(=O)n(C)c(=O)n2C — 1.6-fold lower, 10.7 µM
- CN1CCN(c2cc(NCC(=O)Nc3ccc(OC(F)(F)F)cc3)c3c(=O)n(C)c(=O)n(C)c3n2)CC1 — 2-fold higher, 34 µM

Tested on: not listed separately
Test: Cytotoxicity against human C-28/I2 cells measured after 72 hrs by CCK8 assay
Type: toxicity, cell-based
Settings: not given

`Cn1c(=O)c2c(NCC(=O)Nc3cccc(C(F)(F)F)c3)cc(N3CCOCC3)nc2n(C)c1=O` and `Cn1c(=O)c2c(NCC(=O)Nc3ccc(Cl)cc3)cc(N3CCOCC3)nc2n(C)c1=O` cannot be ordered by CC50 at 72 h: greater than 100 µM for the first, greater than 100 µM for the second.

`Cn1c(=O)c2c(NCC(=O)Nc3ccc(F)cc3)cc(N3CCCC3)nc2n(C)c1=O` and `Cn1c(=O)c2c(NCC(=O)Nc3ccc(Cl)cc3)cc(N3CCCC3)nc2n(C)c1=O` cannot be ordered by CC50 at 72 h: greater than 100 µM for the first, greater than 100 µM for the second.

`Cn1c(=O)c2c(Nc3ccc(F)c(Cl)c3)cc(=O)n(C)c2n(C)c1=O` and `CCn1c(=O)n(C)c(=O)c2c(Nc3ccc(F)c(Cl)c3)cc(=O)n(C)c21` cannot be ordered by CC50 at 72 h: greater than 100 µM for the first, greater than 100 µM for the second.

`COC(=O)c1ccccc1Nc1cc(=O)n(C)c2c1c(=O)n(C)c(=O)n2C` and `CCn1c(=O)n(C)c(=O)c2c(Nc3ccccn3)cc(=O)n(C)c21` cannot be ordered by CC50 at 72 h: greater than 100 µM for the first, greater than 100 µM for the second.

`CN(C)c1cc(NCC(=O)Nc2ccc(C(F)(F)F)cc2)c2c(=O)n(C)c(=O)n(C)c2n1` and `CN(C)c1cc(NCC(=O)Nc2ccc(F)cc2)c2c(=O)n(C)c(=O)n(C)c2n1` cannot be ordered by CC50 at 72 h: greater than 50 µM for the first, greater than 100 µM for the second.

`CN1CCN(c2cc(NCC(=O)Nc3ccc(F)cc3)c3c(=O)n(C)c(=O)n(C)c3n2)CC1` and `CN1CCN(c2cc(NCC(=O)Nc3ccc(Cl)cc3)c3c(=O)n(C)c(=O)n(C)c3n2)CC1` cannot be ordered by CC50 at 72 h: greater than 50 µM for the first, greater than 25 µM for the second.

`Cc1ccccc1NC(=O)CNc1cc(N2CCCC2)nc2c1c(=O)n(C)c(=O)n2C` and `Cc1cccc(NC(=O)CNc2cc(N3CCN(C)CC3)nc3c2c(=O)n(C)c(=O)n3C)c1` cannot be ordered by CC50 at 72 h: greater than 100 µM for the first, greater than 25 µM for the second.

`CN(C)CCNc1c(Cc2ccccc2)c(=O)n(C)c2c1c(=O)n(C)c(=O)n2C` and `Cn1c(=O)c2c(NCCCN3CCOCC3)c(Cc3ccccc3)c(=O)n(C)c2n(C)c1=O` cannot be ordered by CC50 at 72 h: greater than 100 µM for the first, greater than 100 µM for the second.

Compound `CN1CCN(c2cc(NCC(=O)Nc3ccc(OC(F)(F)F)cc3)c3c(=O)n(C)c(=O)n(C)c3n2)CC1` has a CC50 at 72 h greater than 100 µM.

Tested on: SK-MEL-2
Test: Antiproliferative activity against human SK-MEL-2 cells assessed as inhibition of cell growth measured after 72 hrs by CCK8 assay
Type: functional, cell-based
Settings: SK-MEL-2, 72 h

Point of comparison: `CN1CCN(c2cc(NCC(=O)Nc3ccc(F)cc3)c3c(=O)n(C)c(=O)n(C)c3n2)CC1`, IC50 19.9 µM. Against it:
- Cn1c(=O)c2c(NCC(=O)Nc3cccc(C(F)(F)F)c3)cc(N3CCOCC3)nc2n(C)c1=O — 4.9-fold lower, 4.03 µM
- Cn1c(=O)c2c(NCC(=O)Nc3ccc(Cl)cc3)cc(N3CCOCC3)nc2n(C)c1=O — 2.3-fold higher, 46.5 µM
- CN(C)c1cc(NCC(=O)Nc2ccc(C(F)(F)F)cc2)c2c(=O)n(C)c(=O)n(C)c2n1 — higher, > 50 µM
- O=c1[nH]cc(F)c(=O)[nH]1 [FLUOROURACIL] — 3.1-fold lower, 6.52 µM
- CN1CCN(c2cc(NCC(=O)Nc3ccc(Cl)cc3)c3c(=O)n(C)c(=O)n(C)c3n2)CC1 — within 1.5-fold, 22.4 µM
- Cc1ccccc1NC(=O)CNc1cc(N2CCCC2)nc2c1c(=O)n(C)c(=O)n2C — 3-fold lower, 6.59 µM
- CN1CCN(c2cc(NCC(=O)Nc3ccc(OC(F)(F)F)cc3)c3c(=O)n(C)c(=O)n(C)c3n2)CC1 — 1.8-fold higher, 36.6 µM
- Cc1cccc(NC(=O)CNc2cc(N3CCN(C)CC3)nc3c2c(=O)n(C)c(=O)n3C)c1 — 2.1-fold higher, 42.3 µM

Tested on: MCF7
Test: Antiproliferative activity against human MCF7 cells assessed as inhibition of cell growth measured after 72 hrs by CCK8 assay
Type: functional, cell-based
Settings: MCF7, 72 h

Point of comparison: `O=c1[nH]cc(F)c(=O)[nH]1` [FLUOROURACIL], IC50 7.42 µM. Against it:
- Cn1c(=O)c2c(NCC(=O)Nc3cccc(C(F)(F)F)c3)cc(N3CCOCC3)nc2n(C)c1=O — 1.6-fold higher, 12 µM
- Cn1c(=O)c2c(NCC(=O)Nc3ccc(F)cc3)cc(N3CCCC3)nc2n(C)c1=O — 5.3-fold higher, 39.6 µM
- Cn1c(=O)c2c(NCC(=O)Nc3ccc(Cl)cc3)cc(N3CCCC3)nc2n(C)c1=O — 5.6-fold higher, 41.2 µM
- Cn1c(=O)c2c(Nc3ccc(F)c(Cl)c3)cc(=O)n(C)c2n(C)c1=O — higher, > 50 µM
- COC(=O)c1ccccc1Nc1cc(=O)n(C)c2c1c(=O)n(C)c(=O)n2C — 4.5-fold higher, 33.4 µM
- CN1CCN(c2cc(NCC(=O)Nc3ccc(F)cc3)c3c(=O)n(C)c(=O)n(C)c3n2)CC1 — 4.4-fold higher, 32.9 µM
- CN1CCN(c2cc(NCC(=O)Nc3ccc(Cl)cc3)c3c(=O)n(C)c(=O)n(C)c3n2)CC1 — higher, > 50 µM
- Cc1ccccc1NC(=O)CNc1cc(N2CCCC2)nc2c1c(=O)n(C)c(=O)n2C — 2.1-fold higher, 15.8 µM
- CCn1c(=O)n(C)c(=O)c2c(Nc3ccc(F)c(Cl)c3)cc(=O)n(C)c21 — higher, > 50 µM
- CN(C)CCNc1c(Cc2ccccc2)c(=O)n(C)c2c1c(=O)n(C)c(=O)n2C — higher, > 50 µM
- Cn1c(=O)c2c(NCCCN3CCOCC3)c(Cc3ccccc3)c(=O)n(C)c2n(C)c1=O — higher, > 50 µM
- CN(C)c1cc(NCC(=O)Nc2ccc(F)cc2)c2c(=O)n(C)c(=O)n(C)c2n1 — 6.4-fold higher, 47.5 µM
- CCn1c(=O)n(C)c(=O)c2c(Nc3ccccn3)cc(=O)n(C)c21 — 4.7-fold higher, 35 µM
- CN1CCN(c2cc(NCC(=O)Nc3ccc(OC(F)(F)F)cc3)c3c(=O)n(C)c(=O)n(C)c3n2)CC1 — 5.3-fold higher, 39.3 µM

Tested on: A-375
Test: Antiproliferative activity against human A-375 cells assessed as inhibition of cell growth measured after 72 hrs by CCK8 assay
Type: functional, cell-based
Settings: A-375, 72 h

Point of comparison: `Cn1c(=O)c2c(NCC(=O)Nc3ccc(Cl)cc3)cc(N3CCCC3)nc2n(C)c1=O`, IC50 48.2 µM. Against it:
- Cn1c(=O)c2c(NCC(=O)Nc3cccc(C(F)(F)F)c3)cc(N3CCOCC3)nc2n(C)c1=O — 6.5-fold lower, 7.36 µM
- Cn1c(=O)c2c(NCC(=O)Nc3ccc(F)cc3)cc(N3CCCC3)nc2n(C)c1=O — higher, > 50 µM
- Cn1c(=O)c2c(Nc3ccc(F)c(Cl)c3)cc(=O)n(C)c2n(C)c1=O — within 1.5-fold, 49.6 µM
- COC(=O)c1ccccc1Nc1cc(=O)n(C)c2c1c(=O)n(C)c(=O)n2C — higher, > 50 µM
- Cn1c(=O)c2c(NCC(=O)Nc3ccc(Cl)cc3)cc(N3CCOCC3)nc2n(C)c1=O — within 1.5-fold, 43.2 µM
- CN(C)c1cc(NCC(=O)Nc2ccc(C(F)(F)F)cc2)c2c(=O)n(C)c(=O)n(C)c2n1 — within 1.5-fold, 43.2 µM
- O=c1[nH]cc(F)c(=O)[nH]1 [FLUOROURACIL] — 8.1-fold lower, 5.98 µM
- CN1CCN(c2cc(NCC(=O)Nc3ccc(F)cc3)c3c(=O)n(C)c(=O)n(C)c3n2)CC1 — within 1.5-fold, 44.7 µM
- CN1CCN(c2cc(NCC(=O)Nc3ccc(Cl)cc3)c3c(=O)n(C)c(=O)n(C)c3n2)CC1 — higher, > 50 µM
- Cc1ccccc1NC(=O)CNc1cc(N2CCCC2)nc2c1c(=O)n(C)c(=O)n2C — 6.3-fold lower, 7.6 µM
- CCn1c(=O)n(C)c(=O)c2c(Nc3ccc(F)c(Cl)c3)cc(=O)n(C)c21 — higher, > 50 µM
- CN(C)CCNc1c(Cc2ccccc2)c(=O)n(C)c2c1c(=O)n(C)c(=O)n2C — higher, > 50 µM
- Cn1c(=O)c2c(NCCCN3CCOCC3)c(Cc3ccccc3)c(=O)n(C)c2n(C)c1=O — higher, > 50 µM
- CN(C)c1cc(NCC(=O)Nc2ccc(F)cc2)c2c(=O)n(C)c(=O)n(C)c2n1 — within 1.5-fold, 45.7 µM
- CCn1c(=O)n(C)c(=O)c2c(Nc3ccccn3)cc(=O)n(C)c21 — within 1.5-fold, 39.5 µM
- CN1CCN(c2cc(NCC(=O)Nc3ccc(OC(F)(F)F)cc3)c3c(=O)n(C)c(=O)n(C)c3n2)CC1 — 1.6-fold lower, 30.5 µM
- Cc1cccc(NC(=O)CNc2cc(N3CCN(C)CC3)nc3c2c(=O)n(C)c(=O)n3C)c1 — within 1.5-fold, 40 µM
